Activity calls are given as the source filed them.
What was measured:
cells [1] = format: functional, cell-based
Streptokinase A = molecular target: T1, Streptokinase A (Streptococcus pyogenes serotype M1, UniProt P10520); experiment: S. pyogenes streptokinase expression inhibitors, potency, dose response, plasminogen activation absorbance, OD405 (AID 1914); format: functional, Streptococcus pyogenes M1 GAS;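 note: secreted streptokinase activity via plasminogen activation per viability signal from cell pellet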
T1 sequence (P10520 whole entry): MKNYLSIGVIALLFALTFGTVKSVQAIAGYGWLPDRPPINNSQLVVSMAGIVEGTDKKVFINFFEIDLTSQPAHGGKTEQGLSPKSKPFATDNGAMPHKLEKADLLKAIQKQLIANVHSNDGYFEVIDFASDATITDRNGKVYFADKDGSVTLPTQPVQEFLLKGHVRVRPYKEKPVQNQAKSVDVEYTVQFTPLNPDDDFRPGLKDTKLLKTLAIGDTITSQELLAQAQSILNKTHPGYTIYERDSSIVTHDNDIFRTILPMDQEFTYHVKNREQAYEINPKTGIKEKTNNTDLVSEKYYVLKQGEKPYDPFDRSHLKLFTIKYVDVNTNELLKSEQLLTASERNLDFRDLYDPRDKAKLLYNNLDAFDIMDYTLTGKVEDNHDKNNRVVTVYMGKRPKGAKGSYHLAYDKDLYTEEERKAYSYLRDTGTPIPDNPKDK

[2] = molecular target: T2, Trace amine-associated receptor 1 (Homo sapiens, UniProt Q96RJ0); experiment: Counterscreen for agonists of the human trace amine associated receptor 1 (hTAAR1): Fluorescence-based cell-based high throughput dose response assay to identify hTAAR1 agonist that also desensitize TAAR1 receptor response.; format: functional
T2 sequence (Q96RJ0 whole entry): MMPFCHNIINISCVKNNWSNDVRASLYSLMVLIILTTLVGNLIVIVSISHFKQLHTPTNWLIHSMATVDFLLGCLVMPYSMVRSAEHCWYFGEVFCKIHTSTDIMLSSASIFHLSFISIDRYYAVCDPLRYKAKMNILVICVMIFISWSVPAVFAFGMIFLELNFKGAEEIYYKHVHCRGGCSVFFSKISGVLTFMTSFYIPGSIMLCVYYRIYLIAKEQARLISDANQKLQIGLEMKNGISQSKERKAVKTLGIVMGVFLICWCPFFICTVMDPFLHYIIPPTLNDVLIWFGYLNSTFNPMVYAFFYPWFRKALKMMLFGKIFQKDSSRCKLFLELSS

[3] = molecular target: T2, Trace amine-associated receptor 1; experiment: Fluorescence-based cell-based high throughput dose response assay to identify agonists of the human trace amine associated receptor 1 (TAAR1).; format: functional
[4] = tested on: Streptococcus sp. 'group A'; experiment: growth inhibition of control SK(-) GAS strain, dose response, counter-screen for streptokinase expression inhibitor project, luminescence, kanamycin, BacTiterGlo, confirmation (AID 1900); format: functional, organism-based
Streptococcus = experiment: Group A Streptococcus viability loss, dose response, counter-screen for streptokinase expression inhibitor project, luminescence, BacTiterGlo (AID 1915); format: functional, organism-based;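 note: potency for reduction of bacterial viability or growth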
cells [5] = format: functional, cell-based; remark: listed apart in the source
[6] = LGR2 antagonists, dose response, cell-based, HEK293, CRE-luciferase reporter, cherry pick, set 2 (AID 743343); format: functional;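 note: transfected cells were stimulated with diluted bursicon conditioned medium after compound addition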
[7] = HepG2 cell cytotoxicity, dose response, cytotoxicity control, plate reader, cherry-pick, antagonist series (AID 743416); format: functional, cell-based
[8] = HEK293 cell cytotoxicity, dose response, cytotoxicity control, plate reader, cherry-picked samples (AID 743446); format: functional, cell-based
[9] = MC4R antagonists, dose response, counter-screen for LGR2 antagonist project, cell-based, plate reader, cherry pick (AID 743444); format: functional;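 note: transfected HEK 293 cells stimulated with alpha-MSH peptide; potency of inhibitors of the alpha-MSH evoked signal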
Paired box protein Pax-8 = Paired box protein Pax-8 (Homo sapiens, UniProt Q06710); experiment: inhibitors of PAX8-driven TPO luciferase reporter, dose response, RMG-I cells, cherry-pick (AID 687027); format: functional, cell-based;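 note: luciferase reporter driven by Pax8 target thyroperoxidase promoter measured by SteadyGlo luminescence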
[10] = Shn3 3'UTR reporter inhibitors, dose response, cell-based, Clone20 osteoblasts, firefly luciferase, cherry-picked (AID 624132); format: functional;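 note: firefly luciferase luminescence from reporter carrying the Shn3 3'UTR in osteoblasts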
[11] = A549 cell cytotoxicity, dose response, cytotoxicity control, plate reader, cherry-pick, antagonist series (AID 743412); format: functional, cell-based
[12] = HepG2 cell cytotoxicity, dose response, cytotoxicity control for Shn3 inhibitor project, CellTiter-Glo, cherry-picked (AID 624134); format: functional, cell-based
[13] = control 3'UTR Renilla luciferase suppression, dose response, counter-screen for Shn3 inhibitor project, cell-based, Clone20-Shn3RL, cherry-picked (AID 624133); format: functional
[14] = molecular target: T3, Microphthalmia-associated transcription factor (Homo sapiens, UniProt O75030); experiment: TRPM1 promoter luciferase signal decrease, dose response, MITF inhibitor project, cell-based, SK-MEL-5, cherry-picked, set 3 (AID 493073); format: functional
T3 sequence (O75030 whole entry): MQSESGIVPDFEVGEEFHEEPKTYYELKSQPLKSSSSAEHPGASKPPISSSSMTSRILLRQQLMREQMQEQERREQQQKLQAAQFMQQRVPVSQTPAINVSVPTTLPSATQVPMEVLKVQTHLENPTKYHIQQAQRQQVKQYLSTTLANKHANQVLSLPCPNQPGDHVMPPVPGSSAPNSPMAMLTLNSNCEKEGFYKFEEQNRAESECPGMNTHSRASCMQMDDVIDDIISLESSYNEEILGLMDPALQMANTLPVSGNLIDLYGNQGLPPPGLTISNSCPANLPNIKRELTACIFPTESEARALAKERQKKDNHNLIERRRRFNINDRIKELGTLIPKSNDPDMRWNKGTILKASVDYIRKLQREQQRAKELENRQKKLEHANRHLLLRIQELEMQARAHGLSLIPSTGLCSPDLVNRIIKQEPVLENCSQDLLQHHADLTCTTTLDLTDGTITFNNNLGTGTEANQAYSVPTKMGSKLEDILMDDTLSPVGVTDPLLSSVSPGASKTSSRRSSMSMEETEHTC

[15] = Luminescence Cell-Based Dose Retest to Confirm Inhibitors of Cancer Stem Cells. [Related pubchem assays (depositor defined):AID2717, AID2721]; format: functional; details: Homo sapiens
A-375 = experiment: A375 melanoma cell viability reduction, dose response, counter-screen for MITF modulator project, cherry-pick samples, set 2 (AID 540335); format: functional, cell-based; details: Homo sapiens

Paired box protein Pax-8, sequence (Q06710 whole entry): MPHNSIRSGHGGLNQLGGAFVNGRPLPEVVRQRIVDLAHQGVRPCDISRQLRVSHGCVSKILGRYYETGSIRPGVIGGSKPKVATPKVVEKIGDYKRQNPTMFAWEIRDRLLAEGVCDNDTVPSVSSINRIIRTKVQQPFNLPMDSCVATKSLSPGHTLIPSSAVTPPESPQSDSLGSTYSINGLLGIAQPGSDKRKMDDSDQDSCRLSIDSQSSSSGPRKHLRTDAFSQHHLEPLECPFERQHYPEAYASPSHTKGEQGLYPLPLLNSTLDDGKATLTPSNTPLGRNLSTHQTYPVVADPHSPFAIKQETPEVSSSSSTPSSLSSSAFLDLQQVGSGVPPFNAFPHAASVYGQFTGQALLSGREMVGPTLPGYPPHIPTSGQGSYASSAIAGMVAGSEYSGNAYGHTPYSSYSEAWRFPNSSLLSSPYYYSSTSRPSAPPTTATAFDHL

Row | Compound | EC50 (cells [1]) | EC50 (Streptokinase A) | IC50 [2] | EC50 [3] | EC50 [4] | EC50 (Streptococcus) | IC50 (cells [5]) | AC50 [6] | AC50 [7] | AC50 [8] | AC50 [9] | AC50 (Paired box protein Pax-8) | AC50 [10] | AC50 [11] | AC50 [12] | AC50 [13] | AC50 [14] | AC50 [15] | AC50 (A-375)
1 | CCN(CCn1cccn1)C(=O)CC1C(=O)NCCN1CCc1ccccc1 (stereo not drawn) | > 29.9 µM (inactive) | > 150 µM (not active) | 2.2 µM (active) | 1.31 µM (active) | > 150 µM (not active) | > 150 µM (not active) | > 29.9 µM (inactive) |  |  |  |  |  |  |  |  |  |  |  | 
2 | O=C(Nc1nc2ccccc2s1)c1ccc2sc([C@H]3C[C@H](O)[C@@H](CO)O3)nc2c1 |  |  |  |  |  |  |  | 18.2 µM (active) | > 52 µM (inactive) | > 52 µM (inactive) | 18.5 µM (active) |  |  |  |  |  |  |  | 
3 | Cc1ccc(S(=O)(=O)N2CCCCC2)cc1NC(=O)Cn1ncc(Cl)c(Cl)c1=O |  |  |  |  |  |  |  | 17.9 µM (active) | 10.4 µM (active) | 7.53 µM (active) | 17.5 µM (active) | 4.3 µM (active) | 4.32 µM (active) | 9.07 µM (active) | 23.5 µM (active) | 8.36 µM (active) | 6.21 µM (active) | 2.6 µM (active) | 23.7 µM (active)
